As usually defined, the Cmax is the highest concentration seen after dosing.

This series in a line: Single ascending dose (SAD) oral pharmacokinetics of anle138b in healthy subjects, plasma. Format: in vivo, human. As to conditions: for AUC(0-t) / Cmax: human, plasma, fasted, geometric mean (CV%); for AUC(0-t): read-out: AUC(0-24). The procedure: This was a single-centre, double-blind, randomised, placebo-controlled single ascending dose (SAD) and multiple ascending dose (MAD) study of anle138b in doses of up to 300 mg per day in healthy subjects. In addition, the effect of food (FES) on the PK of anle138b in healthy subjects was examined using single doses of 150 mg. Participants were recruited from Quotient Sciences (Nottingham, UK) volunteer database.
As a safety precaution, sentinel dosing was performed for all SAD and MAD cohorts. In SAD, subjects received a single dose of anle138b or placebo after fasting from all food and drink (except water) for a minimum of 8 h prior to dosing. The dosing in the four SAD-cohorts were 50 mg, 100 mg, 200 mg and 300 mg of free anle138b equivalent, respectively. In the MAD part, participants received anle138b or placebo once daily (QD) for 7 days after fasting from all food and drink (except water) for a minimum of 8 h prior to dosing. The dosing in the three MAD-cohorts was 100 mg, 200 mg and 300 mg of free anle138b equivalent, respectively. Post dosing mouth and hand checks were conducted to ensure the capsules were swallowed. In-study decisions regarding continuation and dose escalation were made by the safety advisory committee (SAC) comprising the principal investigator, the sponsor's medical monitor and a PK expert. For dose escalation to proceed, data needed to be available from a minimum of 6 subjects per cohort with completed per protocol safety and PK assessments up to 48 h after dosing to ensure at least 4 subjects had received active IMP. The decision to proceed to the next higher dose level was based on safety, tolerability and available PK data to 48 h post-dose. The following data were required: Adverse events, vital signs, safety laboratory, ECG, physical examinations, plasma concentrations of anle138b with interim PK parameter estimations (Tmax, Cmax, AUC(0-24), AUC(0-tau), AUC(0-last) and T½, where applicable). Data were provided to the SAC in accordance with Quotient Sciences’ standard operating procedure (SOP) on interim dose decision-making and dose escalation.
Secondary outcome measures were the oral PK of single (SAD) and multiple (MAD) ascending doses of anle138b in the fasted state as well as the effect of co-administration with food on the PK of anle138b. To this end PK blood samples were taken at day 1 (and for MAD day 7) pre-dose and at 0·5, 1, 1·5, 2, 3, 4, 6, 8, 10, 12, 16 and 20 h post-dose, at days 2 to 6 pre-dose only (MAD) and 24, 30, 36 and 48 h post final dose. Analysis of anle138b in plasma was done at Aptuit, an Evotec company, in Verona, Italy. Time point of last quantifiable data was seen to increase with an increase in dose as follows: SAD: from the 50mg dose (subjects ranged between 8-24h) to the 300mg dose (subjects ranged between 36-48h). MAD: from the 100mg dose (subjects ranged between 8-36h) to the 300mg dose (subjects ranged between 20-48h). In FES, subjects ranged between 24-48h.
The study was exploratory and no formal sample size calculation was made. Based on experience from previous studies of similar design, eight subjects per cohort were enrolled for parts 1 (SAD) and 2 (MAD) and a total of twelve subjects for part 3 (FES). Populations and analysis sets were determined for safety and PK data after database lock using the criteria defined in the reporting and analysis plan. The safety population and safety analysis set for SAD and MAD were defined after database lock but prior to study unblinding. Statistical analysis and production of summary tables, figures and listings for all safety data (AEs, vital signs, ECGs and safety laboratory assessments) including changes from baseline as required in this study were performed using the statistical package SAS (v9·4). Additional statistics was provided for PK-related data including coefficient of variation (CV%), geometric mean, geometric CV%, and the number n of subjects that were included in the natural logarithmic transformation). […]

The mark [1] stands for this setting: SAD Cohort B 100 mg single oral dose.
[2] abbreviates: SAD Cohort C 200 mg single oral dose.
Where [3] appears, read: SAD Cohort D 300 mg single oral dose.

Read-outs that look alike come from different tables or passages of the source.

Take `Brc1cccc(-c2cc(-c3ccc4c(c3)OCO4)n[nH]2)c1` [anle138b, 3-(1,3-benzodioxol-5-yl)-5-(3-bromophenyl)-1H-pyrazole]: the “Time point of last quantifiable data (range of subjects)” value lay in the range of 8 to 24 h (SAD 50mg dose) and 36 to 48 h (SAD 300mg dose). Moreover, the AUC(0-t) by setting is: (SAD Cohort A 50 mg single oral dose) 113 ng·h/mL; under setting [1], 366 ng·h/mL; under setting [2], 1090 ng·h/mL; under setting [3], 1650 ng·h/mL. The Cmax reads like this: under setting [1], 156 ng/mL; under setting [2], 458 ng/mL; under setting [3], 704 ng/mL. For the same compound, the “Achievement of potential therapeutic exposure (based upon nonclinical in vivo models)” value (single 100 mg dose) was “already achieved after single 100 mg dose”.

Values taken from PMC9065877, “Safety, tolerability and pharmacokinetics of the oligomer modulator anle138b with exposure levels sufficient for therapeutic efficacy in a murine Parkinson model: A randomised, double-blind, placebo-controlled phase 1a trial” (EBioMedicine, 2022).
